Each block holds one compound with its values, some of them ahead of it. Calls of active or inactive are those of the source. The rule behind the calls is not given here.
Tests used:
[1] = target: T1, DNMT3A2/3L complex (Homo sapiens) (UniProt Q9Y6K1+Q9UJW3); experiment: Inhibition of wild type full length recombinant human DNMT3A expressed in NiCo21(DE3) competent Escherichia coli cells to DNMT3L (unknown origin) protein-protein interaction
[2] = target: T1, DNMT3A2/3L complex (Homo sapiens); experiment: Inhibition of DNMT3L-mediated wild type full length recombinant human DNMT3A homo tetramer expressed in NiCo21(DE3) competent Escherichia coli cells to DNMT3L protein-protein interaction assessed as DNA methylation using poly dl-dC as substrate incubated for 1 hr
[3] = target: T1, DNMT3A2/3L complex (Homo sapiens); experiment: […] of wild type full length recombinant human DNMT3A expressed in NiCo21(DE3) competent Escherichia coli cells to DNMT3L protein-protein interaction
[4] = target: DNA (cytosine-5)-methyltransferase 3A (Homo sapiens) (UniProt Q9Y6K1); experiment: Inhibition of H3 peptide activated human full length DNMT3A expressed in NiCo21(DE3) competent Escherichia coli cells at 60 uM
Sequence of DNA (cytosine-5)-methyltransferase 3A (Homo sapiens) (Q9Y6K1 whole entry, looked up): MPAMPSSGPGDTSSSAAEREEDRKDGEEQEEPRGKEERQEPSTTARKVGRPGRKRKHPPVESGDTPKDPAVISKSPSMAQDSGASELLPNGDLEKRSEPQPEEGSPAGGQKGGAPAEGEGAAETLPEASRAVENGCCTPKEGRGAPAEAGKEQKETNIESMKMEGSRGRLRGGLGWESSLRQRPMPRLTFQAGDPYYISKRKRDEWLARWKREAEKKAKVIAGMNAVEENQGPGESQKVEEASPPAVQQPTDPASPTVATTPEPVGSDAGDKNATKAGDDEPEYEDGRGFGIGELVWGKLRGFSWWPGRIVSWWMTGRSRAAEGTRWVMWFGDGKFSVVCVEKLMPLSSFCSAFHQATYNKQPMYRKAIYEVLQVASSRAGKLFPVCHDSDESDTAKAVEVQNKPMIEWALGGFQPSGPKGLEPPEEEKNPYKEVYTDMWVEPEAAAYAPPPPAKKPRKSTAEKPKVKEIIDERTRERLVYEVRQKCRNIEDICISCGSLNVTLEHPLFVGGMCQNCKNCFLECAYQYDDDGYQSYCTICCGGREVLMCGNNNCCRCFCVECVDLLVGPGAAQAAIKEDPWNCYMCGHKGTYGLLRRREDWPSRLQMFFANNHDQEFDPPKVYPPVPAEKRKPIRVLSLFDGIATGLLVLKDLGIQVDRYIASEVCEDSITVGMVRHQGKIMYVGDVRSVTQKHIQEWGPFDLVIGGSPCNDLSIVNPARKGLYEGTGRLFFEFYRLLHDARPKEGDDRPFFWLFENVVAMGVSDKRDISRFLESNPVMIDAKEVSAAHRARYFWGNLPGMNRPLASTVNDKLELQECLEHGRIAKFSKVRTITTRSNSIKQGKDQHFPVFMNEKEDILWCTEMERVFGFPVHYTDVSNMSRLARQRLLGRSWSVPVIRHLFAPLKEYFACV

[5] = target: Lysine-specific demethylase 5A (Homo sapiens) (UniProt P29375); experiment: Inhibition of KDM5A (1 to 797) activity using 21-mer biotinylated H3K4me3 peptide measured after 40 mins by TR-FRET assay
Sequence of Lysine-specific demethylase 5A (Homo sapiens) (P29375 whole entry): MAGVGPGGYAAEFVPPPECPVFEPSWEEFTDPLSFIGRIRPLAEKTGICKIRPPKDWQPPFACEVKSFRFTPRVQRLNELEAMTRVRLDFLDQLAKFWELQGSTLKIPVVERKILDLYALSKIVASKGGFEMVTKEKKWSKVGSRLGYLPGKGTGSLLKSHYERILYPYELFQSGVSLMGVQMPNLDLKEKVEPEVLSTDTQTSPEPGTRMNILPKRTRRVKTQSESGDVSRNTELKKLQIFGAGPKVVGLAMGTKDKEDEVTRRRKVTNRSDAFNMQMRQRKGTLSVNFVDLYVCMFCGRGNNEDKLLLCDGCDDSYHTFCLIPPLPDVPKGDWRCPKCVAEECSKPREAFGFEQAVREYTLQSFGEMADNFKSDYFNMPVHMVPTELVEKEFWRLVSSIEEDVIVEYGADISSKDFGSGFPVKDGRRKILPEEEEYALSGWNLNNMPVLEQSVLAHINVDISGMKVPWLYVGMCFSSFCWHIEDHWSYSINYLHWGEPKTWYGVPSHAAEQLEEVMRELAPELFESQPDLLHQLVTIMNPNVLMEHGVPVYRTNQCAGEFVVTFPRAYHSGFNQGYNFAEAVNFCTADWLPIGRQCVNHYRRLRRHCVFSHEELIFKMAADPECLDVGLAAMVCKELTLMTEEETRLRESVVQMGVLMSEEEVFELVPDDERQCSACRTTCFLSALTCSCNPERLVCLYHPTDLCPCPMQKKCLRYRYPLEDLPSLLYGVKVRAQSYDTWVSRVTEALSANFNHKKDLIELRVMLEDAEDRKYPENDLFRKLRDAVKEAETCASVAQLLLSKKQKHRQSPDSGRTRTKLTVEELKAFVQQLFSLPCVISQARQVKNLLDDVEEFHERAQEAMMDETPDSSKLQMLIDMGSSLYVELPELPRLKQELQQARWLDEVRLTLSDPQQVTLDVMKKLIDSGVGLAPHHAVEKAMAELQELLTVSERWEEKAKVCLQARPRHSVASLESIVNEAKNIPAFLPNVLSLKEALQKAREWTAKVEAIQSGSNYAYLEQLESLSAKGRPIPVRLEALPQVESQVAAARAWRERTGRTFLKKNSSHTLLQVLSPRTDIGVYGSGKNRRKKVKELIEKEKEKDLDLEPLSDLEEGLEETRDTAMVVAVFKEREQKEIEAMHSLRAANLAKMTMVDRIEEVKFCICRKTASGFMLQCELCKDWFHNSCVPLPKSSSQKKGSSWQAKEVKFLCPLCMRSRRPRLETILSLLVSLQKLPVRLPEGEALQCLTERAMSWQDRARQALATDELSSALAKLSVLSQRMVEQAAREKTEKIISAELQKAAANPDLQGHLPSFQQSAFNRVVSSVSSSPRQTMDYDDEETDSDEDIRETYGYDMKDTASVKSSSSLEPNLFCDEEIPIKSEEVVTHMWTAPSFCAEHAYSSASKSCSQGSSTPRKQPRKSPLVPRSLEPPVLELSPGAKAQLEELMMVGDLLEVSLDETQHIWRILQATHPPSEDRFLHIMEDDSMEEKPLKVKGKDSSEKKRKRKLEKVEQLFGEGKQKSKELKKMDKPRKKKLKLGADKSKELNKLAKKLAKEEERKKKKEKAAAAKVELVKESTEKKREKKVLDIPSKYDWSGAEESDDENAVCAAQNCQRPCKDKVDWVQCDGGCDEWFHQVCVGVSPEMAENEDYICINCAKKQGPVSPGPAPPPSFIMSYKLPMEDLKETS

[6] = target: DNA (cytosine-5)-methyltransferase 3A (Homo sapiens) (UniProt Q9Y6K1); experiment: Inhibition of wild type full length recombinant human DNMT3A expressed in NiCo21(DE3) competent Escherichia coli cells assessed as decrease the fluorescence anisotrophy of DNA bound protein using FAM/TGGATATCTAGGGGCGCTATGATAT as substrate incubated for 5 mins by microplate reader based fluorescence anisotropy assay
[7] = organism: Homo sapiens; experiment: Inhibition of wild type full length recombinant human DNMT3A expressed in NiCo21(DE3) competent Escherichia coli cells to human TDG protein protein interaction using FAM/TGGATATCTAGGGGCGCTATGATAT as substrate incubated for 5 mins by microplate reader based fluorescence anisotropy assay; conditions: DDE = dose-dependent effect
[8] = organism: Homo sapiens; experiment: Inhibition of wild type full length recombinant human DNMT3A expressed in NiCo21(DE3) competent Escherichia coli cells to human p53 protein-protein interaction using FAM/TGGATATCTAGGGGCGCTATGATAT as substrate incubated for 5 mins by microplate reader based fluorescence anisotropy assay; conditions: DDE = dose-dependent effect
[9] = organism: Homo sapiens; experiment: Inhibition of full length recombinant human DNMT3A R729 mutant tetramer expressed in NiCo21(DE3) competent Escherichia coli cells
[10] = organism: Homo sapiens; experiment: Inhibition of full length recombinant human DNMT3A E733 mutant tetramer expressed in NiCo21(DE3) competent Escherichia coli cells
[11] = organism: Homo sapiens; experiment: Inhibition of full length recombinant human DNMT3A R736 mutant tetramer expressed in NiCo21(DE3) competent Escherichia coli cells
[12] = organism: Homo sapiens; experiment: Inhibition of full length recombinant human DNMT3A R729A mutant tetramer expressed in NiCo21(DE3) competent Escherichia coli cells to DNMT3L (unknown origin) protein-protein interaction preincubated for 1 hr
[13] = organism: Homo sapiens; experiment: Inhibition of full length recombinant human DNMT3A E733A mutant tetramer expressed in NiCo21(DE3) competent Escherichia coli cells to DNMT3L (unknown origin) protein-protein interaction preincubated for 1 hr
[14] = organism: Homo sapiens; experiment: Inhibition of full length recombinant human DNMT3A R736A mutant tetramer expressed in NiCo21(DE3) competent Escherichia coli cells to DNMT3L (unknown origin) protein-protein interaction preincubated for 1 hr
[15] = organism: Homo sapiens; experiment: Inhibition of full length recombinant human DNMT3A R771A mutant tetramer expressed in NiCo21(DE3) competent Escherichia coli cells to DNMT3L (unknown origin) protein-protein interaction preincubated for 1 hr
[16] = organism: Homo sapiens; experiment: Inhibition of full length recombinant human DNMT3A R771A mutant expressed in NiCo21(DE3) competent Escherichia coli cells to DNMT3L (unknown origin) protein-protein interaction using FAM-DNA as substrate by fluorescence anisotropy assay
[17] = organism: Homo sapiens; experiment: Inhibition of full length recombinant human DNMT3A R882H mutant expressed in NiCo21(DE3) competent Escherichia coli cells to DNMT3L (unknown origin) protein-protein interaction
[18] = organism: Homo sapiens; experiment: Inhibition of full length recombinant human DNMT3A R882H mutant expressed in NiCo21(DE3) competent Escherichia coli cells
[19] = organism: Homo sapiens; experiment: Inhibition of full length recombinant human DNMT3A R882H mutant expressed in NiCo21(DE3) competent Escherichia coli cells to DNMT3L (unknown origin) using FAM-DNA as substrate
[20] = organism: Homo sapiens; experiment: Inhibition of full length recombinant human DNMT3A R882H mutant expressed in NiCo21(DE3) competent Escherichia coli cells to human p53
[21] = organism: Homo sapiens; experiment: Inhibition of full length recombinant human DNMT3A R882H mutant expressed in NiCo21(DE3) competent Escherichia coli cells to human TDG
[22] = system: HL-60; experiment: Induction of apoptosis in human HL-60 cells measured after 72 hrs by annexinVstaining based flow cytometry; type: functional, cell-based; conditions: dose 7-12 µM, DDE = dose-dependent effect
[23] = system: K562; experiment: Induction of apoptosis in human K562 cells measured after 72 hrs by annexinV staining based flow cytometry; type: functional, cell-based; conditions: dose 7-12 µM, DDE = dose-dependent effect
[24] = system: MV4-11; experiment: Induction of apoptosis in human MV4-11 cells measured after 72 hrs by annexinVstaining based flow cytometry; type: functional, cell-based; conditions: dose 7-12 µM, DDE = dose-dependent effect
[25] = system: OCI-AML-3; experiment: Induction of apoptosis in human OCI-AML-3 cells measured after 72 hrs by annexinV staining based flow cytometry; type: functional, cell-based; conditions: dose 7-12 µM, DDE = dose-dependent effect
[26] = system: Kasumi 1; experiment: Induction of apoptosis in human Kasumi 1 cells measured after 72 hrs by annexinV staining based flow cytometry; type: functional, cell-based; conditions: dose 7-12 µM, DDE = dose-dependent effect
[27] = system: THP-1; experiment: Induction of apoptosis in human THP-1 cells measured after 72 hrs by annexinV staining based flow cytometry; type: functional, cell-based; conditions: dose 7-12 µM, DDE = dose-dependent effect
[28] = system: MOLM-13; experiment: Induction of apoptosis in human MOLM-13 cells measured after 72 hrs by annexinV staining based flow cytometry; type: functional, cell-based; conditions: dose 7-12 µM, DDE = dose-dependent effect
[29] = system: MV4-11; experiment: Induction of myeloid differentiation in human MV4-11 cells assessed as increase in CD11b level measured after 72 hrs by propidium iodide staining based flow cytometry; type: functional, cell-based; conditions: dose 5-10 µM, DDE = dose-dependent effect
[30] = system: MOLM-13; experiment: Induction of myeloid differentiation in human MOLM-13 cells assessed as increase in CD11b level measured after 72 hrs by propidium iodide staining based flow cytometry; type: functional, cell-based; conditions: dose 5-10 µM, DDE = dose-dependent effect
[31] = system: THP-1; experiment: Induction of myeloid differentiation in human THP-1 cells assessed as increase in CD11b level measured after 72 hrs by propidium iodide staining based flow cytometry; type: functional, cell-based; conditions: dose 5-10 µM, DDE = dose-dependent effect
[32] = system: OCI-AML-3; experiment: Induction of DNA methylation in human OCI-AML-3 cells at 5 uM by ELISA; type: functional, cell-based; conditions: time 3.0 day, TDE = time-dependent effect
[33] = system: K562; experiment: Induction of DNA methylation in human K562 cells at 5 uM by ELISA; type: functional, cell-based; conditions: time 3.0 day, TDE = time-dependent effect
[34] = system: OCI-AML-3; experiment: Induction of myeloid differentiation in human OCI-AML-3 cells assessed as increase in CD11b level measured after 72 hrs by propidium iodide staining based flow cytometry; type: functional, cell-based; conditions: dose 5-10 µM, DDE = dose-dependent effect
[35] = system: Kasumi 1; experiment: Induction of myeloid differentiation in human Kasumi 1 cells assessed as increase in CD11b level measured after 72 hrs by propidium iodide staining based flow cytometry; type: functional, cell-based; conditions: DDE = dose-dependent effect
[36] = system: HL-60; experiment: Induction of myeloid differentiation in human HL-60 cells assessed as increase in CD11b level measured after 72 hrs by propidium iodide staining based flow cytometry; type: functional, cell-based; conditions: DDE = dose-dependent effect
[37] = system: K562; experiment: Induction of myeloid differentiation in human K562 cells assessed as increase in CD11b level measured after 72 hrs by propidium iodide staining based flow cytometry; type: functional, cell-based; conditions: DDE = dose-dependent effect
[38] = system: HL-60; experiment: Induction of DNA methylation in human HL-60 cells at 5 uM by ELISA; type: functional, cell-based; conditions: time 3.0 day, TDE = time-dependent effect
[39] = target: T1, DNMT3A2/3L complex (Homo sapiens); experiment: Inhibition of DNMT3L-mediated wild type full length recombinant human DNMT3A hetero tetramer expressed in NiCo21(DE3) competent Escherichia coli cells to DNMT3L protein-protein interaction assessed as DNA methylation using poly dl-dC as substrate incubated for 1 hr

T1 sequence (Q9UJW3 whole entry, looked up): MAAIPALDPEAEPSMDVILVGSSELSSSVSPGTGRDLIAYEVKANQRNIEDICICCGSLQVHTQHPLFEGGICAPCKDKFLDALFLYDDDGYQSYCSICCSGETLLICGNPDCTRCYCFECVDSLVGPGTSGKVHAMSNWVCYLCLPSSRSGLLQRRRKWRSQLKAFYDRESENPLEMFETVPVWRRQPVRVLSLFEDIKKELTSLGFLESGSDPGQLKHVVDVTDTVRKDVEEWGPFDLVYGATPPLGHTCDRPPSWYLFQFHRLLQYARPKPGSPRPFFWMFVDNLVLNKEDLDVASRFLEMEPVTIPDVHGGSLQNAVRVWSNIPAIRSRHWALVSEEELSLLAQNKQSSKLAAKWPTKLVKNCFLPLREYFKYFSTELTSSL
T1 sequence (Q9Y6K1 whole entry, looked up): as the sequence (Q9Y6K1 whole entry, looked up) above

inhibition [1]: Active | inhibition [2]: Active | Activity [3]: Active | inhibition [4]: Active | inhibition [5]: Active | inhibition [6]: Active | inhibition [39]: Active
Compound: COc1ccc(C2=NN(C3CCCCCC3)C(=O)[C@@H]3CC=CC[C@H]23)cc1OCCCCOc1ccc(-c2nnn[nH]2)cc1
inhibition [7]: Dde | inhibition [8]: Dde | inhibition [9]: Active | inhibition [10]: Active | inhibition [11]: Active | inhibition [12]: Active | inhibition [13]: Active | inhibition [14]: Active | inhibition [15]: Active | inhibition [16]: Active | inhibition [17]: Active | inhibition [18]: Active | inhibition [19]: Active | inhibition [20]: Active | inhibition [21]: Active | Activity [22]: Dde | Activity [23]: Dde | Activity [24]: Dde | Activity [25]: Dde | Activity [26]: Dde | Activity [27]: Dde | Activity [28]: Dde | Activity [29]: Dde | Activity [30]: Dde | Activity [31]: Dde | Activity [32]: Tde | Activity [33]: Tde | Activity [34]: Dde | Activity [35]: Dde | Activity [36]: Dde | Activity [37]: Dde | Activity [38]: Tde

inhibition [1]: Active | Activity [3]: Active | inhibition [4]: Active | inhibition [5]: Active | inhibition [6]: Active
Compound: COc1ccc(C2=NN(C3CCCCCC3)C(=O)C2(C)C)cc1OCCCCOc1ccc(-c2nn[nH]n2)cc1
inhibition [7]: Dde | inhibition [8]: Dde | inhibition [17]: Active | inhibition [18]: Active | inhibition [19]: Active | inhibition [20]: Active | inhibition [21]: Active
